From patent US4686206A, “Composition for activating function of phagocytes” (Sunstar Kabushiki Kaisha, priority 1984, dated 1987) come the findings set out here.

The term LD50 denotes the dose expected to kill half of the subjects tested. Read a low LD50 as a more toxic substance.

Data set [1] concerns neutrophils. Nature of the data set: Chemotaxis of human neutrophils (Boyden chamber, N-formyl-methionyl-leucyl-phenylalanine in lower part). Format: cell-based. The note with it: Neutrophil, 1 μg/ml, 2×10^-8 M N-formyl-methionyl-leucyl-phenylalanine, 1 to 3 hours at 37° C., relative to control = 100%. The procedure: (§1) Neutrophils were separated from human peripheral blood and the effect of various tocopherylglycosides on random migration and chemotaxis of the neutrophils were measured by using Boyden chambers.
(§2) Tocopherol or a tocopheryl glycoside dissolved in 1% dimethylsulfoxide was added to a suspension containing 2.5×10^6 cells/ml of neutrophils so that a concentration of tocopherol or the tocopheryl glycoside was 1 μg/ml. After 15 minutes incubation at 37° C., the mixture was added to the upper part of the chamber. To the lower part of the chamber was added PBS in case of measuring random migration, or added 2×10^-8 M of N-formyl-methionyl-leucyl-phenylalanine in case of measuring chemotaxis. Then, the chamber was incubated at 37° C. for 1 to 3 hours. After incubation, the filter was fixed and stained with hematoxylin, and then the number of neutrophils migrated to the bottom of the filter was counted by using a microscope. As a control, the same procedure was repeated except that tocopherol or the tocopheryl glycoside was not added. In Table 1, the relative percentage of the counting obtained by addition of tocopherol or the tocopheryl glycoside is shown by taking the counting of the control as 100%.

Data set [2] deals with neutrophils. Briefly: Random migration of human neutrophils (Boyden chamber, PBS in lower part). Format: cell-based. The following applies: Neutrophil, 1 μg/ml, 15 min preincubation, 1 to 3 hours at 37° C., relative to control = 100%, read-out: random motoricity. Here is the method: as §1, §2
For data set [3], the system named is neutrophils. Nature of the data set: Phagocytosis of neutrophils (opsonized FITC-labeled Staphylococcus aureus IFO 13276). Format: cell-based. The note with it: Homo sapiens, Neutrophil, 0.25 h; 1 μg/ml; 15 min at 37° C.; relative to control = 100%. The procedure:
Neutrophils were separated from human peripheral blood and a suspension containing 2.5×10^6 cells/ml of neutrophils was prepared. Tocopherol or a different tocopheryl glycoside was added to 900 μl of this suspension so that the concentration of tocopherol or the tocopheryl glycoside was 1 μg/ml and the mixture was incubated at 37° C. for 15 minutes.
The suspension (100 μl) containing 1×10^9 cells/ml of opsonized Staphylococcus aureus (IFO 13276) labeled with fluorescein isothiocyanate was added to the mixture. The resulting mixture was incubated at 37° C. for 15 minutes. Then, the number of cells incorporated into 100 cells of neutrophils was counted by using a fluorescence microscope. As a control, the same procedure was repeated except that tocopherol or the tocopheryl glycoside was not added. In Table 2, the relative percentage of the counting obtained by addition of tocopherol or the tocopheryl glycoside is shown by taking the counting of the control as 100%.

Data set [4] can be described thus: Acute toxicity (LD50) in rat. The following applies: in vivo.
In data set [5] the test system is Pseudomonas aeruginosa (P-1 strain, Ikaken). Nature of the data set: In vivo test to Pseudomonas aeruginosa (survival of infected mice). More on the design: species or system ICR mice. The following applies: 1 mg/kg i.v. once a day for three days; 2.5×10^7 cells P. aeruginosa i.p.; after 24 hours; control 0%. The procedure: An aqueous injectable solution of dl-α-tocopheryl glucoside or dl-α-tocopheryl mannoside (see Example 3) was intravenously injected to ICR mice (body weight: 20 to 25 g, 10 mice per a group (5 female mice and 5 male mice)) once a day (dose: 1 mg/kg) for three days continuously. After the final injection, 2.5×10^7 cells of Pseudomonas aeruginosa (P-1 strain, Ikaken) were injected i.p. and the percentage of survival animuls was determined after 24 hours. As a control, the same procedure was repeated except that an equal amount of distilled water was used instead of the tocopheryl glycoside and the percentage of survival animals was determined. As the result, the percentage of survival of the control group was 0%, whereas that of the group injected with dl-α-tocopherylglucoside or dl-α-tocopherylmannoside was 20%, respectively.

In the case of `Cc1c(C)c2c(c(C)c1OC1O[C@H](CO)[C@H](O)[C@H](O)[C@H]1O)CCC(C)(CCCC(C)CCCC(C)CCCC(C)C)O2` (mixture of isomers) [dl-α-Tocopherylgalactoside, reference compound], the activity at 1 µg/mL with neutrophils [1] turned out to be 85 ± 3%; with neutrophils [2], 64 ± 8%; in the data set with neutrophils [3] it was 112 ± 9%.
`Cc1c(C)c2c(c(C)c1OC1O[C@H](CO)[C@@H](O)[C@H](O)[C@H]1O)CCC(C)(CCCC(C)CCCC(C)CCCC(C)C)O2` (mixture of isomers) [dl-α-Tocopherylglucoside, dl-α-tocopherylglucoside]: the activity at 1 µg/mL in the data set on neutrophils [1] was 140 ± 6%; with neutrophils [2] it was 98 ± 34%; in the data set on neutrophils [3] it was 168 ± 31%. The LD50 in data set [4] (ip) was at least 500 mg/kg; in data set [4] (po) it was at least 5000 mg/kg. The same compound displayed a percentage of survival in data set [5] of 20%.
Turning to `Cc1c(C)c2c(c(C)c1O[C@@H]1O[C@H](CO)[C@@H](O)[C@H](O)[C@@H]1O)CCC(C)(CCCC(C)CCCC(C)CCCC(C)C)O2` (mixture of isomers) [dl-α-Tocopherylmannoside], the activity at 1 µg/mL came out at 168 ± 3% with neutrophils [1], 71 ± 16% with neutrophils [2] and 219 ± 21% with neutrophils [3]. The LD50 was at least 500 mg/kg in data set [4] (ip) and at least 5000 mg/kg in data set [4] (po). In addition, in data set [5], the percentage of survival is 20%.
In the case of `Cc1c(C)c2c(c(C)c1O)CCC(C)(CCCC(C)CCCC(C)CCCC(C)C)O2` (racemic) [dl-α-Tocopherol, reference compound], the activity at 1 µg/mL in the data set on neutrophils [1] is 94 ± 5%; with neutrophils [2], 82 ± 12%; in the data set with neutrophils [3], 164 ± 16%.
